ChEMBL document CHEMBL6134781, “In vitro identification of oridonin hybrids as potential anti-TNBC agents inducing cell cycle arrest and apoptosis by regulation of p21, γH2AX and cleaved PARP” (RSC Med Chem, 2024)
The source made the active and inactive calls. The calls are words filed in the database; no cut-off is given here.

Columns and labels:
MDA-MB-468 [1] = assay: Induction of cell cycle arrest in human MDA-MB-468 cells assessed as decrease in accumulation at S phase incubated for 16 hrs by PI staining based flow cytometry; type: functional; details: dose 1-3 µM
HCC1937 [2] = assay: Effect on cell cycle distribution in human HCC1937 cells at 1 to 3 uM incubated for 16 hrs by PI staining based flow cytometry; type: functional; details: dose 1-3 µM
MDA-MB-231 [3] = assay: Induction of apoptosis in human MDA-MB-231 cells assessed as late apoptotic cells at 1 uM incubated for 16 hrs by Annexin V-FITC/PI staining based flow cytometry (reference value: 4.62 %); type: functional
MDA-MB-231 [4] = assay: Induction of apoptosis in human MDA-MB-231 cells assessed as necrotic cells at 1 uM incubated for 16 hrs by Annexin V-FITC/PI staining based flow cytometry (reference value: 3.89 %); type: functional
MDA-MB-231 [5] = assay: Induction of apoptosis in human MDA-MB-231 cells assessed as early apoptotic cells at 3 uM incubated for 16 hrs by Annexin V-FITC/PI staining based flow cytometry (reference value: 1.94 %); type: functional
MDA-MB-468 [6] = assay: Induction of apoptosis in human MDA-MB-468 cells assessed as viable cells at 3 uM incubated for 24 hrs by Annexin V-FITC/PI staining based flow cytometry (reference value: 88.9 %); type: functional; details: read-out: Activity
MDA-MB-468 [7] = assay: Induction of apoptosis in human MDA-MB-468 cells assessed as early apoptotic cells at 3 uM incubated for 24 hrs by Annexin V-FITC/PI staining based flow cytometry (reference value: 3.17 %); type: functional
MDA-MB-468 [8] = assay: Induction of apoptosis in human MDA-MB-468 cells assessed as necrotic cells at 3 uM incubated for 24 hrs by Annexin V-FITC/PI staining based flow cytometry (reference value: 4.11 %); type: functional
HCC1937 [9] = assay: Induction of apoptosis in human HCC1937 cells assessed as viable cells at 1 uM incubated for 24 hrs by Annexin V-FITC/PI staining based flow cytometry (reference value: 97.2 %); type: functional; details: read-out: Activity
HCC1937 [10] = assay: Induction of apoptosis in human HCC1937 cells assessed as late apoptotic cells at 1 uM incubated for 24 hrs by Annexin V-FITC/PI staining based flow cytometry (reference value: 1.45 %); type: functional
HCC1937 [11] = assay: Induction of apoptosis in human HCC1937 cells assessed as viable cells at 3 uM incubated for 24 hrs by Annexin V-FITC/PI staining based flow cytometry (reference value: 97.2 %); type: functional; details: read-out: Activity
HCC1937 [12] = assay: Induction of apoptosis in human HCC1937 cells assessed as early apoptotic cells at 3 uM incubated for 24 hrs by Annexin V-FITC/PI staining based flow cytometry (reference value: 0.74 %); type: functional
HCC1806 [13] = assay: Induction of apoptosis in human HCC1806 cells assessed as viable cells at 3 uM incubated for 24 hrs by Annexin V-FITC/PI staining based flow cytometry (reference value: 95.4 %); type: functional; details: read-out: Activity
HCC1806 [14] = assay: Induction of apoptosis in human HCC1806 cells assessed as early apoptotic cells at 3 uM incubated for 24 hrs by Annexin V-FITC/PI staining based flow cytometry (reference value: 3.06 %); type: functional
MDA-MB-231 [15] = assay: Induction of apoptosis in human MDA-MB-231 cells assessed as increase in cleaved PARP-1 level incubated for 16 hrs by Western blot analysis; type: functional, cell-based; details: dose 1-3 µM
MDA-MB-231 [16] = assay: Induction of cell cycle arrest in human MDA-MB-231 cells assessed as increase in p21 level incubated for 16 hrs by Western blot analysis; type: functional, cell-based; details: dose 1-3 µM
HCC1806 [17] = assay: Induction of cell cycle arrest in human HCC1806 cells assessed as increase in p21 level incubated for 16 hrs by Western blot analysis; type: functional, cell-based; details: dose 1-3 µM
HCC1937 [18] = assay: Induction of cell cycle arrest in human HCC1937 cells assessed as increase in p21 level incubated for 16 hrs by Western blot analysis; type: functional, cell-based; details: dose 1-3 µM
MDA-MB-231 [19] = assay: Induction of DNA damage in human MDA-MB-231 cells assessed as increase in gamma-H2AX level incubated for 16 hrs by Western blot analysis; type: functional, cell-based; details: dose 1-3 µM
HCC1937 [20] = assay: Induction of DNA damage in human HCC1937 cells assessed as increase in gamma-H2AX level incubated for 24 hrs by Western blot analysis; type: functional, cell-based; details: dose 1-3 µM

For `C=C1C(=O)[C@]23[C@H](OC(=O)C45CC6CC(CC(C6)C4)C5)[C@H]1CC[C@H]2[C@@]12CO[C@]3(O)[C@@H](O)[C@@H]1C(C)(C)CC[C@@H]2O`, the Activity (MDA-MB-468 [1]) was “Dose-dependent-effect”, the Activity (HCC1937 [2]) was “Active” and the Activity (MDA-MB-231 [3]) was 1.92%. For the same compound, the Activity (MDA-MB-231 [4]) was 0.32%, the Activity (MDA-MB-231 [5]) was 3.51% and the viability at 3 µM (MDA-MB-468 [6]) was 66.3%. It also gave an Activity (MDA-MB-468 [7]) of 30%, an Activity (MDA-MB-468 [8]) of 0.44% and a viability at 1 µM (HCC1937 [9]) of 96.1%. For the same compound, the Activity (HCC1937 [10]) was 2.34%, the viability at 3 µM (HCC1937 [11]) was 71.1% and the Activity (HCC1937 [12]) was 4.23%. The viability at 3 µM (HCC1806 [13]) was 74.8%, the Activity (HCC1806 [14]) was 11% and the Activity (MDA-MB-231 [15]) was “Dose-dependent-effect”. For the same compound, the Activity (MDA-MB-231 [16]) was “Dose-dependent-effect”, the Activity (HCC1806 [17]) was “Dose-dependent-effect” and the Activity (HCC1937 [18]) was “Dose-dependent-effect”. The Activity (MDA-MB-231 [19]) was “Dose-dependent-effect” and the Activity (HCC1937 [20]) was “Dose-dependent-effect”.
